# Test results: PubChem BioAssay (NCI)
#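 Briefly, cells in 96-well plates were exposed to five compound concentrations for 48 h, and endpoints were estimated by linear interpolation. The concentration for 50% growth inhibition is given as GI50. Definition used: TGI = concentration required for complete inhibition of growth.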
# Columns and labels:
# Assay in all cases: NCI-60 cell line screen, 48 h
# SK-OV-3 ovarian = system: SK-OV-3 ovarian
# NCI-H522 lung = system: NCI-H522 lung
# SNB-75 CNS = system: SNB-75 CNS
# HT29 colon = system: HT29 colon
# A549 NSCLC = system: A549 NSCLC
# UACC-62 melanoma = system: UACC-62 melanoma
# SF-295 CNS = system: SF-295 CNS
# ACHN renal = system: ACHN renal
# MALME-3M melanoma = system: MALME-3M melanoma
# OVCAR-3 ovarian = system: OVCAR-3 ovarian
# RXF 393 renal = system: RXF 393 renal
# HOP-62 NSCLC = system: HOP-62 NSCLC
# NCI-H460 lung = system: NCI-H460 lung
# KM12 colon = system: KM12 colon
# UACC-257 melanoma = system: UACC-257 melanoma
# MOLT-4 leukemia = system: MOLT-4 leukemia
# OVCAR-4 ovarian = system: OVCAR-4 ovarian
SMILES,TGI (SK-OV-3 ovarian) [µM],TGI (NCI-H522 lung) [µM],TGI (SNB-75 CNS) [µM],TGI (HT29 colon) [µM],TGI (A549 NSCLC) [µM],TGI (UACC-62 melanoma) [µM],TGI (SF-295 CNS) [µM],TGI (ACHN renal) [µM],TGI (MALME-3M melanoma) [µM],TGI (OVCAR-3 ovarian) [µM],TGI (RXF 393 renal) [µM],TGI (HOP-62 NSCLC) [µM],TGI (NCI-H460 lung) [µM],TGI (KM12 colon) [µM],TGI (UACC-257 melanoma) [µM],TGI (MOLT-4 leukemia) [µM],TGI (OVCAR-4 ovarian) [µM],GI50 (SNB-75 CNS) [µM],GI50 (OVCAR-4 ovarian) [µM]
CCOC(=O)C(C(=O)OCC)c1ccc([N+](=O)[O-])o1,> 100,3.26,37.3,31.2,43.4,35.9,36.8,22.6,17.6,15.8,24.9,> 75.5,44.9,33.9,28.1,19.8,32.4,,
COc1cc2c(cc1OCCCOS(C)(=O)=O)N=C[C@@H]1CCCN1C2=O,> 100,> 100,> 100,> 100,> 100,> 100,> 100,> 100,> 100,> 100,> 100,,> 100,> 100,> 100,> 100,> 100,94.7,70.4
C=CCN1COc2c(cc3c4c(cccc24)C(=O)O3)C1,> 100,28.4,77.6,51.8,> 100,36.8,> 100,> 10,> 10,72.5,> 10,> 100,> 100,> 100,60.7,64.9,> 100,,
CC(=O)C1Cn2c(=O)c3cc4ccccc4cc3c(=O)n2C=C1C (centres undefined),> 100,> 100,> 100,,> 100,,> 100,> 100,> 100,> 100,> 100,> 100,> 100,> 100,> 100,> 100,> 100,,
C/C(CC(=O)Nc1cc(C)ccc1C)=N/N=C(N)N,> 100,> 100,> 100,> 100,> 100,> 100,> 100,> 100,> 100,> 100,> 100,> 100,> 100,> 100,> 100,> 100,,,
O=C(CC(C(=O)c1cccs1)c1ccsc1)c1ccccc1 (centres undefined),> 100,> 100,> 100,> 100,66.2,> 100,> 100,> 100,,> 100,> 100,> 100,> 100,> 100,> 100,> 100,> 100,,
Clc1ccc(CCn2cncn2)cc1,> 100,> 100,> 100,> 100,> 100,> 100,> 100,> 100,> 100,> 100,> 100,> 100,> 100,> 100,> 100,> 100,> 100,,
N#CC1=C(c2ccccc2)C(=C2Nc3ccccc3N2)C2S/C(=C\c3ccccc3)C(=O)N2C1=N (centres undefined),3.62,3.52,3.77,14.3,12.9,4.76,6.21,10.1,4.07,3.37,,5.1,10.2,15.1,15.7,7.79,6.4,,
O=c1c2ccccc2nc2n1-c1ccccc1SC2,> 100,70.8,56.2,> 100,> 100,> 100,> 100,> 100,> 100,> 100,> 100,> 100,> 100,> 100,> 100,75.3,> 100,,
O=C(O)COc1ccc(C(=O)/C(SS/C(C(=O)c2ccc(OCC(=O)O)c(Cl)c2Cl)=C2\C=C(c3ccc(Cl)cc3)SS2)=C2/C=C(c3ccc(Cl)cc3)SS2)c(Cl)c1Cl,> 100,9.54,31,> 100,41.7,25.7,82.5,25.4,> 100,26.6,,> 100,35.6,54.6,> 100,12.6,16.7,,
O=C1C=CC2(C=C1)CCNC1=C2C(=O)c2ccccc2C1=O,> 100,> 100,> 100,> 100,> 100,> 100,> 100,> 100,> 100,76.7,> 100,> 100,> 100,> 100,> 100,> 100,> 100,,
Cc1nc(N2N=C(c3ccc(Cl)cc3)CCC2=O)sc1[N+](=O)[O-],> 100,> 100,> 100,> 100,> 100,> 100,> 100,> 100,> 100,> 100,> 100,> 100,> 100,> 100,> 100,> 100,> 100,,
